# Laboratory results reported in patent US12613246B2, “Fluorescent probe and protein labeling method” (SHANGHAI GLORY CAPITAL MANAGEMENT LTD., priority 2018, dated 2026).
# Experiments:
# [1] = Fluorescence of free probe before reaction with the protein tag; format: physicochemical
# Method: (§1) Mix the probe with corresponding protein tag to obtain the mixed sample, wherein the final concentration of probe in the mixed sample is 5 μM, and the final concentration of protein tags is 10 μM; hatch the mixed sample at 37° C. for 1 h, and detect its fluorescence intensity change by using the fluorescence spectrophotometer.
# (§2) According to the free probe quantum yield shown in Table 1, the fluorescence of the probes of and reference probes are extremely low before the reaction with the protein tag, and is close to the background fluorescence level of PBS buffer solution. […] However, according to the quantum yield of the binding protein tag, the fluorescence signal enhancement can be detected in the corresponding excitation emission channel after the probe reacts with the protein tag with hundreds to one thousand fold fluorescence activation times and very high brightness; the reference probes also can activate fluorescence, but the fluorescence quantum yield and brightness after activation are quite low.
# SNAP protein tag = assay: Fluorescence activation after mixing probe with corresponding protein tag (SNAP); format: biochemical; settings: probe 5 μM, protein tag 10 μM, 37° C., 1 h
# Method: as §1, §2
# [2] = Fluorescence emission spectra of probes in glycerol and methanol (viscosity response); format: physicochemical; settings: maximum excitation wavelength of each probe; for Fluorescence ratio in glycerol methanol: 1×10^−5 M; for Emission wavelength: medium not given
# Description: Respectively dissolve Probe 1-32 and Reference Probes BG-CCVJ and BG-Gly-CCVJ in dimethyl sulfoxide so as to prepare a mother liquid with a concentration of 1×10^−2M; add the mother liquid to glycerol and methanol respectively and mix them well to prepare a solution with a concentration of 1×10^−5 M. Based on different probes, the fluorescence emission spectrum of each probe are detected under the same conditions with maximum excitation wavelength of each probe.
# The probes are sensitive to the change of viscosity and have viscosity response.
# CLIP protein tag = assay: Fluorescence activation after mixing probe with corresponding protein tag (CLIP); format: biochemical; settings: probe 5 μM, protein tag 10 μM, 37° C., 1 h
# Method: as §1, §2
Quantum yield of free probe [1],Quantum yield of binding protein tags (SNAP protein tag),Fluorescence ratio in glycerol methanol [2],Emission wavelength [2] [nm],Quantum yield of binding protein tags (CLIP protein tag),Compound,Fluorescence activation multiple (SNAP protein tag),Fluorescence activation multiple (CLIP protein tag)
<0.001,0.41,562,550,–,CN(CCOC(=O)NCc1ccc(COc2nc(N)nc3[nH]cnc23)cc1)c1ccc2nc(/C=C(\C#N)C(=O)OC(C)(C)C)ccc2c1 [Probe 1],490,–
<0.001,0.44,790,630,–,CN(CCOC(=O)NCc1ccc(COc2nc(N)nc3[nH]cnc23)cc1)c1ccc2nc(/C=C(\C#N)c3nc4ccccc4o3)ccc2c1 [Probe 2],556,–
<0.001,–,621,550,0.41,CN(CCOC(=O)NCc1ccc(COc2nccc(N)n2)cc1)c1ccc2nc(/C=C(\C#N)C(=O)OC(C)(C)C)ccc2c1 [Probe 3],–,473
<0.001,0.39,601,550,–,CN(CCOC(=O)NCc1ccc(COc2cc(Cl)nc(N)n2)cc1)c1ccc2nc(/C=C(\C#N)C(=O)OC(C)(C)C)ccc2c1 [Probe 4],567,–
<0.001,0.44,821,615,–,CN(CCOC(=O)NCc1ccc(COc2nc(N)nc3[nH]cnc23)cc1)c1ccc(-c2ccc(/C=C(\C#N)C(=O)OC(C)(C)C)o2)cc1 [Probe 5],669,–
<0.001,0.41,851,627,–,COCCNC(=O)/C(C#N)=C/c1ccc(-c2ccc(N(C)CCOC(=O)NCc3ccc(COc4nc(N)nc5[nH]cnc45)cc3)cc2)o1 [Probe 6],745,–
<0.001,0.45,814,666,–,CN(CCOC(=O)NCc1ccc(COc2nc(N)nc3[nH]cnc23)cc1)c1ccc(-c2ccc(/C=C(\C#N)c3nc4ccccc4o3)o2)cc1 [Probe 7],701,–
<0.001,–,574,630,0.40,CN(CCOC(=O)NCc1ccc(COc2nccc(N)n2)cc1)c1ccc(-c2ccc(/C=C(\C#N)C(=O)OC(C)(C)C)o2)cc1 [Probe 8],–,555
0.0012,0.37,311,650,–,CN(CCOC(=O)NCc1ccc(COc2nc(N)nc3[nH]cnc23)cc1)c1ccc(-c2ccc(/C=C(\C#N)C(=O)OC(C)(C)C)o2)o1 [Probe 13],359,–
0.001,0.35,402,725,–,CN(CCOC(=O)NCc1ccc(COc2nc(N)nc3[nH]cnc23)cc1)c1ccc(-c2ccc(/C=C(\C#N)c3nc4ccccc4s3)o2)o1 [Probe 14],498,–
<0.001,0.51,996,640,–,COCCNC(=O)/C(C#N)=C/c1cc2c(s1)-c1ccc(N(C)CCOC(=O)NCc3ccc(COc4nc(N)nc5[nH]cnc45)cc3)cc1C2(C)C [Probe 19],670,–
<0.001,0.44,1123,665,–,COCCNC(=S)/C(C#N)=C/c1cc2c(s1)-c1ccc(N(C)CCOC(=O)NCc3ccc(COc4nc(N)nc5[nH]cnc45)cc3)cc1C2(C)C [Probe 20],910,–
<0.001,0.39,542,680,–,COC(=S)/C(C#N)=C/c1cc2c(s1)-c1ccc(N(C)CCOC(=O)NCc3ccc(COc4nc(N)nc5[nH]cnc45)cc3)cc1C2(C)C [Probe 21],451,–
<0.001,0.33,512,643,–,CN(CCOC(=O)NCc1ccc(COc2nc(N)nc3[nH]cnc23)cc1)c1ccc2c(c1)C(C)(C)c1cc(/C=C(\C#N)C(=O)O)sc1-2 [Probe 23],433,–
<0.001,0.41,493,645,–,CN(CCOC(=O)NCc1ccc(COc2cc(Cl)nc(N)n2)cc1)c1ccc2c(c1)C(C)(C)c1cc(/C=C(\C#N)C(=O)OC(C)(C)C)sc1-2 [Probe 27],557,–
<0.001,0.67,1274,651,–,CN(CCOC(=O)NCc1ccc(COc2nc(N)nc3[nH]cnc23)cc1)c1ccc2c(c1)C(C)(C)c1cc(/C=C(\C#N)C(=O)OC(C)(C)C)oc1-2 [Probe 28],857,–
<0.001,0.41,412,675,–,CN(CCOC(=O)NCc1ccc(COc2nc(N)nc3[nH]cnc23)cc1)c1ccc2c(c1)C(C)(C)C(/C=C(\C#N)C(=O)OC(C)(C)C)=N2 [Probe 30],503,–
<0.001,0.47,573,703,–,CN(CCOC(=O)NCc1ccc(COc2nc(N)nc3[nH]cnc23)cc1)c1ccc2c(c1)C(C)(C)C(/C=C(\C#N)c1nc3ccccc3s1)=N2 [Probe 31],445,–
<0.001,0.41,553,675,–,CN(CCOC(=O)NCc1ccc(COc2nccc(N)n2)cc1)c1ccc2c(c1)C(C)(C)C(/C=C(\C#N)C(=O)OC(C)(C)C)=N2 [Probe 32],421,–
<0.001,0.02,260,501,–,"N#C/C(=C\c1cc2c3c(c1)CCCN3CCC2)C(=O)NCc1ccc(COc2nc(N)nc3[nH]cnc23)cc1 [Reference probe BG-CCVJ, reference compound]",170,–
<0.001,–,260,–,–,"N#C/C(=C\c1cc2c3c(c1)CCCN3CCC2)C(=O)NCC(=O)NCc1ccc(COc2nc(N)nc3[nH]cnc23)cc1 [Reference probe BG-Gly-CCVJ, reference compound]",60,–
